Inconclusive results and toxic doses are left out. How the source made its calls: active means survival T/C of 150% or more; inactive means T/C below 125% in these data.
Tested on: CD2F1 mice, L1210 leukemia ip, survival T/C
Test: NCI In Vivo Anticancer Drug Screen. Data for tumor model L1210 Leukemia (intraperitoneal) in CD2F1 (CDF1) mice
Conditions: higher = longer survival
Procedure, shortened: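 Implant tumor; dose compound or vehicle; measure endpoint in both groups; report treated divided by control.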

[1] = endpoint: mean survival time, dose: 100.0 mg/kg/injection, schedule: Q04DX003 (ip), vehicle: saline with Tween-80
[2] = endpoint: mean survival time, dose: 200.0 mg/kg/injection, schedule: Q04DX003 (ip), vehicle: saline with Tween-80
[3] = endpoint: mean survival time, dose: 400.0 mg/kg/injection, schedule: Q04DX003 (ip), vehicle: saline with Tween-80
[4] = endpoint: mean survival time, dose: 12.5 mg/kg/injection, schedule: Q01DX009 (ip), vehicle: Klucel (hydroxypropylcellulose) (HPC)
[5] = endpoint: mean survival time, dose: 25.0 mg/kg/injection, schedule: Q01DX009 (ip), vehicle: Klucel (hydroxypropylcellulose) (HPC)
[6] = endpoint: mean survival time, dose: 50.0 mg/kg/injection, schedule: Q01DX009 (ip), vehicle: Klucel (hydroxypropylcellulose) (HPC)

Measured: T/C

CC1(C)CC(=O)c2cc([C@@H]3OC[C@@H](O)[C@H]3O)[nH]c2C1
inactive: endpoint: median survival time, dose: 12.5 mg/kg/injection, schedule: Q01DX005 (ip), vehicle: water 101 % of control | endpoint: median survival time, dose: 25.0 mg/kg/injection, schedule: Q01DX005 (ip), vehicle: water 101 % of control | endpoint: median survival time, dose: 50.0 mg/kg/injection, schedule: Q01DX005 (ip), vehicle: water 101 % of control | endpoint: median survival time, dose: 100.0 mg/kg/injection, schedule: Q01DX005 (ip), vehicle: water 94 % of control | endpoint: median survival time, dose: 200.0 mg/kg/injection, schedule: Q01DX005 (ip), vehicle: water 96 % of control

NCCc1c[nH]c2ccccc12
inactive: endpoint: mean survival time, dose: 100.0 mg/kg/injection, schedule: Q01DX009 (ip), vehicle: saline with Tween-80 93 % of control | endpoint: mean survival time, dose: 200.0 mg/kg/injection, schedule: Q01DX009 (ip), vehicle: saline with Tween-80 95 % of control | endpoint: mean survival time, dose: 400.0 mg/kg/injection, schedule: Q01DX009 (ip), vehicle: saline with Tween-80 98 % of control

Cc1ncc(CO)c(/C=N/NC(N)=S)c1O
inactive: endpoint: mean survival time, dose: 100.0 mg/kg/injection, schedule: Q01DX001 (ip), vehicle: saline 101 % of control | endpoint: mean survival time, dose: 200.0 mg/kg/injection, schedule: Q01DX001 (ip), vehicle: saline 100 % of control | endpoint: mean survival time, dose: 400.0 mg/kg/injection, schedule: Q01DX001 (ip), vehicle: saline 101 % of control

Oc1ccc(CCl)c2cccnc12
inactive: endpoint: median survival time, dose: 12.5 mg/kg/injection, schedule: Q01DX009 (ip), vehicle: saline 102 % of control | endpoint: median survival time, dose: 25.0 mg/kg/injection, schedule: Q01DX009 (ip), vehicle: saline 102 % of control | endpoint: median survival time, dose: 50.0 mg/kg/injection, schedule: Q01DX009 (ip), vehicle: saline 102 % of control | endpoint: median survival time, dose: 100.0 mg/kg/injection, schedule: Q01DX009 (ip), vehicle: saline 95 % of control

O=S(=O)(O)C(O)c1cccc2ccccc12 (stereo not given)
inactive: [1] 91 % of control | [2] 91 % of control | [3] 94 % of control

CSc1ccc(NC(=O)Nc2nccs2)cc1
inactive: endpoint: mean survival time, dose: 100.0 mg/kg/injection, schedule: Q01DX009 (ip), vehicle: saline sonified 103 % of control | endpoint: mean survival time, dose: 200.0 mg/kg/injection, schedule: Q01DX009 (ip), vehicle: saline sonified 106 % of control | endpoint: mean survival time, dose: 400.0 mg/kg/injection, schedule: Q01DX009 (ip), vehicle: saline sonified 100 % of control

Cl/C(=N\Nc1ccccc1)c1ccccc1
inactive: [4] 102 % of control | [5] 98 % of control | [6] 88 % of control

C[N+](C)(C)Cc1ccccc1
inactive: endpoint: mean survival time, dose: 3.13 mg/kg/injection, schedule: Q01DX009 (ip), vehicle: saline with Tween-80 97 % of control | endpoint: mean survival time, dose: 6.25 mg/kg/injection, schedule: Q01DX009 (ip), vehicle: saline with Tween-80 97 % of control | endpoint: mean survival time, dose: 12.5 mg/kg/injection, schedule: Q01DX009 (ip), vehicle: saline with Tween-80 95 % of control | endpoint: mean survival time, dose: 12.5 mg/kg/injection, schedule: Q04DX003 (ip), vehicle: saline 104 % of control

NNC(=O)CNc1cccc(Br)c1
inactive: [4] 98 % of control | [5] 101 % of control | [6] 101 % of control | endpoint: mean survival time, dose: 50.0 mg/kg/injection, schedule: Q04DX003 (ip), vehicle: Klucel (hydroxypropylcellulose) (HPC) 101 % of control | endpoint: mean survival time, dose: 100.0 mg/kg/injection, schedule: Q01DX001 (ip), vehicle: Klucel (hydroxypropylcellulose) (HPC) 102 % of control | endpoint: mean survival time, dose: 100.0 mg/kg/injection, schedule: Q01DX009 (ip), vehicle: Klucel (hydroxypropylcellulose) (HPC) 97 % of control | endpoint: mean survival time, dose: 100.0 mg/kg/injection, schedule: Q04DX003 (ip), vehicle: Klucel (hydroxypropylcellulose) (HPC) 98 % of control | endpoint: mean survival time, dose: 200.0 mg/kg/injection, schedule: Q01DX001 (ip), vehicle: Klucel (hydroxypropylcellulose) (HPC) 98 % of control | endpoint: mean survival time, dose: 200.0 mg/kg/injection, schedule: Q04DX003 (ip), vehicle: Klucel (hydroxypropylcellulose) (HPC) 111 % of control

O=[N+]([O-])c1ccc(N=Nc2ccccc2)cc1
inactive: [1] 90 % of control | [2] 92 % of control | [3] 92 % of control
